PMC11530689, “Anti colorectal cancer activity and in silico studies of novel pyridine nortopsentin analog as cyclin dependent kinase 6 inhibitor” (Scientific Reports, 2024)

Legend:
Assay in all cases: NCI 60 cell line screen
Assay type in all cases: cell-based
SF-268 = conditions: SF-268, CNS Cancer; single concentration 10^−5 M
Outline: (§1)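 Cytotoxic activity was assessed by the NCI across 60 cancer cell lines, with each compound tested once at 10^-5 M.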

MDA-MB-435 = conditions: MDA-MB-435, Melanoma; single concentration 10^−5 M
Outline: as §1

LOX IMVI = conditions: Melanoma, single concentration 10^−5 M
Outline: as §1

BT-549 = conditions: BT-549, Breast Cancer; single concentration 10^−5 M
Outline: as §1

SK-MEL-28 = conditions: SK-MEL-28, Melanoma; single concentration 10^−5 M
Outline: as §1

OVCAR-3 = conditions: OVCAR-3, Ovarian Cancer; single concentration 10^−5 M
Outline: as §1

UACC-62 = conditions: UACC-62, Melanoma; single concentration 10^−5 M
Outline: as §1

SR = conditions: Leukemia, single concentration 10^−5 M
Outline: as §1

MDA-MB-468 = conditions: MDA-MB-468, Breast Cancer; single concentration 10^−5 M
Outline: as §1

UO-31 = conditions: UO-31, Renal Cancer; single concentration 10^−5 M
Outline: as §1

SF-295 = conditions: SF-295, CNS Cancer; single concentration 10^−5 M
Outline: as §1

RPMI-8226 = conditions: RPMI-8226, Leukemia; single concentration 10^−5 M
Outline: as §1

UACC-257 = conditions: UACC-257, Melanoma; single concentration 10^−5 M
Outline: as §1

NCI-H522 = conditions: NCI-H522, Non-Small Cell Lung Cancer; single concentration 10^−5 M
Outline: as §1

NCI-H23 = conditions: NCI-H23, Non-Small Cell Lung Cancer; single concentration 10^−5 M
Outline: as §1

HS 578T = conditions: Breast Cancer, single concentration 10^−5 M
Outline: as §1

PC-3 = conditions: PC-3, Prostate Cancer; single concentration 10^−5 M
Outline: as §1

HCT-15 = conditions: HCT-15, Colon Cancer; single concentration 10^−5 M
Outline: as §1

OVCAR-4 = conditions: OVCAR-4, Ovarian Cancer; single concentration 10^−5 M
Outline: as §1

U251 = conditions: U251, CNS Cancer; single concentration 10^−5 M
Outline: as §1

DU-145 = conditions: DU-145, Prostate Cancer; single concentration 10^−5 M
Outline: as §1

TK-10 = conditions: TK-10, Renal Cancer; single concentration 10^−5 M
Outline: as §1

| Compound | Growth % (SF-268) [%] | Growth % (MDA-MB-435) [%] | Growth % (LOX IMVI) [%] | Growth % (BT-549) [%] | Growth % (SK-MEL-28) [%] | Growth % (OVCAR-3) [%] | Growth % (UACC-62) [%] | Growth % (SR) [%] | Growth % (MDA-MB-468) [%] | Growth % (UO-31) [%] | Growth % (SF-295) [%] | Growth % (RPMI-8226) [%] | Growth % (UACC-257) [%] | Growth % (NCI-H522) [%] | Growth % (NCI-H23) [%] | Growth % (HS 578T) [%] | Growth % (PC-3) [%] | Growth % (HCT-15) [%] | Growth % (OVCAR-4) [%] | Growth % (U251) [%] | other results |
| --- | --- | --- | --- | --- | --- | --- | --- | --- | --- | --- | --- | --- | --- | --- | --- | --- | --- | --- | --- | --- | --- |
| COc1cc(-c2cc(-c3c[nH]c4ccccc34)nc(-c3c[nH]c4ccccc34)c2C#N)cc(OC)c1OC [4g] | 97.03 | 100.31 | 98.85 | 101.50 | 107.46 | 102.73 | 87.61 | 94.92 | 93.79 | 65.92 | 95.05 | 97.18 | 104.77 | 93.33 | 93.03 | 99.50 | 91.47 | 100.84 | 103.83 | 100.17 | Growth % (DU-145): 106.13%; Growth % (TK-10): 128.09% |
| N#Cc1c(-c2ccc(Br)cc2)cc(-c2c[nH]c3ccccc23)nc1-c1c[nH]c2ccccc12 [4b] | 100.28 | 108.30 | 99.48 | 103.55 | 112.22 | 102.43 | 94.51 | 94.65 | 104.30 | 71.05 | 99.37 | 102.03 | 107.82 | 94.73 | 93.93 | 97.14 | 93.93 | 97.86 | 102.16 | 94.64 | Growth % (DU-145): 107.37%; Growth % (TK-10): 146.78% |
| N#Cc1c(-c2ccc(F)cc2)cc(-c2c[nH]c3ccccc23)nc1-c1c[nH]c2ccccc12 [4d] | 101.12 | 107.27 | 107.36 | 108.84 | 106.51 | 102.48 | 98.33 | 89.11 | 99.29 | 84.72 | 102.68 | 100.93 | 107.07 | 97.04 | 100.43 | 95.18 | 103.05 | 99.59 | 101.04 | 94.85 | Growth % (DU-145): 106.26%; Growth % (TK-10): 127.59% |
| N#Cc1c(-c2ccccc2)cc(-c2c[nH]c3ccccc23)nc1-c1c[nH]c2ccccc12 [4a] | 96.15 | 102.63 | 100.06 | 94.69 | 109.51 | 109.77 | 94.92 | 96.68 | 93.05 | 68.28 | 96.36 | 100.70 | 106.98 | 97.10 | 95.64 | 93.45 | 92.44 | 99.26 | 103.65 | 94.26 | Growth % (DU-145): 108.34%; Growth % (TK-10): 123.79% |
| COc1cc(OC)cc(-c2cc(-c3c[nH]c4ccccc34)nc(-c3c[nH]c4ccccc34)c2C#N)c1 [4f] | 99.97 | 99.41 | 82.70 | 103.60 | 100.94 | 99.19 | 93.55 | 81.27 | 92.23 | 71.31 | 101.07 | 98.96 | 112.07 | 92.06 | 103.68 | 102.35 | 93.60 | 101.68 | 101.53 | 99.96 | Growth % (DU-145): 101.42%; Growth % (TK-10): 124.45% |
| COc1ccc(-c2cc(-c3c[nH]c4ccccc34)nc(-c3c[nH]c4ccccc34)c2C#N)cc1 [4e] | 105.10 | 104.98 | 86.06 | 97.48 | 108.94 | 96.29 | 95.53 | 89.59 | 102.09 | 74.78 | 95.83 | 104.41 | 107.78 | 92.71 | 103.56 | 100.69 | 89.91 | 89.77 | 106.10 | 102.14 | Growth % (DU-145): 108.02%; Growth % (TK-10): 141.73% |
| N#Cc1c(-c2ccc(Cl)cc2)cc(-c2c[nH]c3ccccc23)nc1-c1c[nH]c2ccccc12 [4c] | 103.64 | 106.56 | 101.39 | 113.43 | 103.30 | 107.09 | 89.22 | 98.46 | 102.95 | 70.21 | 99.60 | 102.27 | 108.88 | 96.57 | 89.48 | 100.65 | 100.13 | 98.27 | 106.75 | 99.27 | Growth % (DU-145): 108.08%; Growth % (TK-10): 138.81% |
| N#Cc1c(-c2ccc(O)cc2)cc(-c2c[nH]c3ccccc23)nc1-c1c[nH]c2ccccc12 [4j] | 105.02 | 90.35 | 62.75 | 96.81 | 76.45 | 92.93 | 96.73 | 76.19 | 101.94 | 78.37 | 87.00 | 101.54 | 108.53 | 85.59 | 89.30 | 89.18 | 98.38 | 57.19 | 94.07 | 96.90 | Growth % (DU-145): 104.31%; Growth % (TK-10): 149.07% |
| N#Cc1c(-c2ccc([N+](=O)[O-])cc2)cc(-c2c[nH]c3ccccc23)nc1-c1c[nH]c2ccccc12 [4h] | 93.92 | 104.27 | 92.89 | 108.68 | 106.75 | 97.76 | 85.82 | 84.51 | 92.34 | 70.38 | 100.99 | 95.92 | 104.66 | 95.41 | 97.26 | 94.79 | 93.76 | 99.04 | 99.28 | 99.87 | Growth % (DU-145): 103.04%; Growth % (TK-10): 142.08% |
